In publication PMC10280043 (RSC Advances, 2023) one finds IC50 data, which are given here for 7 compounds.

One test addresses hCAXII (Homo sapiens, UniProt O43570). Kind of test: Carbonic anhydrase inhibition assay, hCAXII. The test is classed as biochemical.
A further test concerns the target hCAII (Homo sapiens, UniProt P00918). Description: Carbonic anhydrase inhibition assay, hCAII. The test is classed as biochemical.
Another test has as its target hCAIX (Homo sapiens, UniProt Q16790). Description: biochemical.

Each structure is given as a SMILES string.

hCAXII, sequence (O43570 25-354): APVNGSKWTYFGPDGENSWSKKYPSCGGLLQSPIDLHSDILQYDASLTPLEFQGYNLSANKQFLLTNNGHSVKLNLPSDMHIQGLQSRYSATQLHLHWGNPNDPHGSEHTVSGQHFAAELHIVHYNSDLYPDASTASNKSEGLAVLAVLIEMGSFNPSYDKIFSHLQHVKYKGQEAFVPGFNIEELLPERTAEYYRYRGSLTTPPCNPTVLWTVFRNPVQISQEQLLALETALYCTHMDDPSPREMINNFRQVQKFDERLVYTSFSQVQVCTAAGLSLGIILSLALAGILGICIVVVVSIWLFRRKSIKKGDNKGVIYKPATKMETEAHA

`NS(=O)(=O)c1ccc(N2N=C(c3ccccc3O)CC2c2ccc(Cl)cc2)cc1` (stereo not drawn) [4c, 4-(5-(4-Chlorophenyl)-3-(2-hydroxyphenyl)-4,5-dihydro-1H-pyrazol-1-yl)benzene sulfonamide]: the IC50 (in general, the concentration needed to halve the response being measured) was found to be 2.87 ± 0.02 µM on hCAXII, 1.2 ± 0.4 µM at hCAII and 7.08 ± 0.4 µM against hCAIX.

Regarding `Cc1ccc(C2CC(c3cc(Br)ccc3O)=NN2c2ccc(S(N)(=O)=O)cc2)cc1` (stereo not drawn) [4f, 4-(3-(5-Bromo-2-hydroxyphenyl)-5-(p-tolyl)-4,5-dihydro-1H-pyrazol-1-yl)benzene sulfonamide], the results for the 50% inhibitory concentration (IC50) at hCAXII and at hCAIX were 6.97 ± 0.14 µM and 0.24 ± 0.08 µM, respectively.

`COc1cccc(C2CC(c3cc(Br)ccc3O)=NN2c2ccc(S(N)(=O)=O)cc2)c1` (stereo not drawn) [4g, 4-(3-(5-Bromo-2-hydroxyphenyl)-5-(3-methoxyphenyl)-4,5-dihydro-1H-pyrazol-1-yl)benzene sulfonamide]: the IC50 against hCAXII turned out to be 0.12 ± 0.07 µM; on hCAII, 8.26 ± 0.99 µM; on hCAIX, 5.28 ± 0.69 µM.

For the compound `NS(=O)(=O)c1ccc(N2N=C(c3cc(Br)ccc3O)CC2c2ccc(Br)cc2)cc1` (stereo not drawn) [4h, 4-(3-(5-Bromo-2-hydroxyphenyl)-5-(4-bromophenyl)-4,5-dihydro-1H-pyrazol-1-yl)benzene sulfonamide], the half-maximal inhibitory concentration (IC50) on hCAXII was determined as 0.38 ± 0.1 µM; on hCAII, 17.2 ± 1.77 µM; against hCAIX, 0.26 ± 0.04 µM.

For the compound `COc1cccc(C2CC(c3cc(Cl)cc(Cl)c3O)=NN2c2ccc(S(N)(=O)=O)cc2)c1` (stereo not drawn) [4i, 4-(3-(3,5-Dichloro-2-hydroxyphenyl)-5-(3-methoxyphenyl)-4,5-dihydro-1H-pyrazol-1-yl)benzene sulfonamide], the concentration for half-maximal inhibition (IC50) against hCAXII stood at 1.6 ± 0.01 µM; on hCAII it was 8.15 ± 0.19 µM; against hCAIX, 4.51 ± 0.22 µM.

Consider `Cc1ccc(C2CC(c3ccc(F)cc3O)=NN2c2ccc(S(N)(=O)=O)cc2)cc1` (stereo not drawn) [4j, 4-(3-(4-Fluoro-2-hydroxyphenyl)-5-(p-tolyl)-4,5-dihydro-1H-pyrazol-1-yl)benzene sulfonamide], for which the IC50 turned out to be 0.28 ± 0.05 µM against hCAXII, 0.39 ± 0.05 µM at hCAII and 0.15 ± 0.07 µM at hCAIX.

For `COc1ccccc1C1CC(c2ccc(F)cc2O)=NN1c1ccc(S(N)(=O)=O)cc1` (stereo not drawn) [4k, 4-(3-(4-Fluoro-2-hydroxyphenyl)-5-(2-methoxyphenyl)-4,5-dihydro-1H-pyrazol-1-yl)benzene sulfonamide], half-maximal inhibition on hCAXII (IC50) required 1 ± 0.09 µM.
